This note sets out measurements from article PMC6399351, “Cationic Intrinsically Disordered Antimicrobial Peptides (CIDAMPs) Represent a New Paradigm of Innate Defense with a Potential for Novel Anti-Infectives” (Scientific Reports, 2019).

In test [1] the test system is Corynebacterium simulans DSM 44415. Put plainly: CFU assay of antimicrobial activity. The test is classed as cell-based. The note with it: 10 mM NaP, pH 6.0, 0.25% glucose. Here is the method: All purified peptides and recombinant proteins were applied using a colony forming unit (CFU) assay in different media. Bacteria were grown to early log-phase in BHI, washed either with 10 mM Na-P, pH 7.4/1% TSB or pH 5.5/1% TSB, or pH 5.5 without TSB or BHI, and adjusted to a concentration of 10^4–10^5 colony forming units (CFU)/ml. For cell number control, 100 µl aliquots were diluted 1:10, 1:100 and 1:1000 and plated in duplicates on BHI agar plates. […]
(§1) Then bacteria were incubated for 2 h at ambient temperature, if not otherwise stated. 10 µl of 0.01% (v/v) acetic acid, added to 100 µl aliquots of the bacteria in the respective medium, served as negative control. From each test, 1:10 and 1:100 dilutions were generated and plated as duplicates of 100 µl aliquots on BHI agar plates. After 16 h incubation at 37 °C, CFU were counted using a colony counter (Bio Kobe, Japan) and expressed as mean of the duplicate estimation to achieve a complete dose-response curve. All experiments were performed at serial dilutions in a concentration range of 100 µg/mL −25 ng/mL for recombinant HRNR fragments and 300 or 150 µg/mL–19 ng/mL for synthetic peptides.

Test [2] deals with P. aeruginosa ATCC 10145. The note with it: CFU assay, 10 mM NaP.
Test [3] concerns E. coli ATCC 11775. Put plainly: CFU assay of antimicrobial activity. Type of test: cell-based, Escherichia coli. The note with it: 10 mM NaP, pH 5.5, 1% TSB. Here is the method:
(§2) All purified peptides and recombinant proteins were applied using a colony forming unit (CFU) assay in different media. Bacteria were grown to early log-phase in BHI, washed either with 10 mM Na-P, pH 7.4/1% TSB or pH 5.5/1% TSB, or pH 5.5 without TSB or BHI, and adjusted to a concentration of 10^4–10^5 colony forming units (CFU)/ml. For cell number control, 100 µl aliquots were diluted 1:10, 1:100 and 1:1000 and plated in duplicates on BHI agar plates. To 100 µl aliquots of the bacteria, suspended in the respective medium (10 mM Na-P buffer pH 7,0–7,4/ 1% (w/v) TSB; 10 mM Na-P buffer pH 5,5/ 1% (w/v) TSB; 10 mM Na-P buffer pH 7,0–7,4/ 1% (w/v) TSB pH 7,0–7,4/ 0,25% (w/v) glucose; 10 mM Na-P buffer pH 5,5/ 0,25% (w/v) glucose, respectively), 10 µl of a solution of the peptide or protein (two-fold dilutions, from 300 µg/ml or 150 µg/ml down to 19 ng/ml), dissolved in 0.01% (v/v) acetic acid, were added.
as §1

Test [4] concerns C. albicans ATCC 24433. Put plainly: CFU assay of antimicrobial activity. Conditions: 10 mM NaP, pH 5.5, 1% TSB. Type of test: cell-based, Candida albicans. Here is the method: Bacteria were cultivated in either brain heart infusion medium (BHI), lysogeny broth (LB) or tryptic soy broth (TSB)[88]. If not otherwise stated, bacteria were incubated under shaking conditions (37 °C at 170 rpm) or as indicated on the ATCC- or DSM-data sheets. Candida albicans was cultured for 3 days on Yeast Extract-Peptone Dextrose (YPD) agar at 30 °C and yeast suspensions at appropriate density were treated with CIDAMPs as indicated.
as §2, §1

Where two headings read alike, the source gives them in different places. Ends that are not written are not given here. Bounds are passed on as bounds.

On to QSGTRHAETSSGGQAASSHEQAR [FLG3273-3295], for which, in test [1], the LD90 was above 150 µg/mL and the LD100 was above 150 µg/mL. Also, in test [2] (pH 5.5, 0.25% glucose), the LD90 is above 300 µg/mL and the LD100 amounted to 300 µg/mL.

For QSGTRHETSSGGQAASSQEQAR [FLG1652-1674], the LD90 in test [1] is above 150 µg/mL; in test [2] (pH 5.5, 0.25% glucose), above 300 µg/mL. Further, the LD100 in test [1] was above 150 µg/mL; in test [2] (pH 5.5, 0.25% glucose), above 300 µg/mL.

For the molecule QSGTRHTQTSSGGQAASSHEQAR [FLG2625-2647], the LD90 in test [1] was above 150 µg/mL; in test [2] (pH 5.5, 0.25% glucose), above 300 µg/mL. Further, the LD100 is above 150 µg/mL in test [1] and above 300 µg/mL in test [2] (pH 5.5, 0.25% glucose).

Regarding “rHRNR2638–2684: recombinant HRNR fragment (QSSGHGRQGSGSGQSPSRGRHGSGLGHSSSHGQHGSGSGRSSSRGPY; UniProt Q86YZ3 2638-2684, looked up, fragment)”, the LD90 was 3.1 µg/mL in test [3]; 6.3 µg/mL in test [4]; 0.39 µg/mL in test [2] (pH 5.5, 1% TSB). The LD100 in test [3] is above 100 µg/mL; in test [4] it was above 100 µg/mL; in test [2] (pH 5.5, 1% TSB), 12.5 µg/mL.

Consider “rHRNR2656–2684: recombinant HRNR fragment (GRHGSGLGHSSSHGQHGSGSGRSSSRGPY; UniProt Q86YZ3 2656-2684, looked up, fragment)”, for which the LD90 in test [3] was 3.1 µg/mL; in test [4], 6.3 µg/mL; in test [2] (pH 5.5, 1% TSB) it was 0.78 µg/mL. The LD100 is above 100 µg/mL in test [3]; above 100 µg/mL in test [4]; 12.5 µg/mL in test [2] (pH 5.5, 1% TSB).

B1: rHRNR1075–1172: recombinant HRNR fragment (protein, UniProt Q86YZ3 1075-1172, looked up, fragment)
chain: THGQHGSTSGQSSSCGQHGASSGQSSSHGQHGSGSSQSSGYGRQGSGSGQSPGHGQRGSGSRQSPSYGRHGSGSGRSSSSGQHGSGLGESSGFGHHES
Take B1: the LD90 in test [3] came to 6.25 µg/mL; in test [4], 1.6 µg/mL; in test [2] (pH 5.5, 1% TSB) it was 6.25 µg/mL. In addition, the LD100 in test [3] is above 100 µg/mL; in test [4] it was 12.5 µg/mL; in test [2] (pH 5.5, 1% TSB), above 100 µg/mL.

B2: rHRNR2727–2850: recombinant HRNR fragment (protein, UniProt Q86YZ3 2727-2850, looked up, fragment)
chain: SGQSSTFDQEGSSTGQSSSYGHRGSGSSQSSGYGRHGAGSGQSLSHGRHGSGSGQSSSYGQHGSGSGQSSGYSQHGSGSGQDGYSYCKGGSNHDGGSSGSYFLSFPSSTSPYEYVQEQRCYFYQ
Take B2: the LD90 in test [3] was 0.28 µg/mL; in test [4] it was 8.6 µg/mL; in test [2] (pH 5.5, 1% TSB), 2.1 µg/mL. The LD100 in test [3] is above 100 µg/mL; in test [4], 137 µg/mL; in test [2] (pH 5.5, 1% TSB) it was 17.1 µg/mL.
